Where two headings read alike, the source gives them in different places. Each block holds one compound with its values, some of them ahead of it.
Legend:
human CYP2C9 = human CYP2C9 (Homo sapiens (Human), UniProt P11712); test: CYP2C9 inhibition (Invitrogen kit, OOMR fluorogenic substrate), Biological Test Example 9; assay type: in vitro ADME; conditions: read-out: Biological Test Example 9 CYP2C9 IC50
[1] = biological target: human recombinant cytochrome P450 3A4 (Homo sapiens (Human), UniProt P08684); test: CYP3A4 inhibition, Biological Test Example 6; assay type: in vitro ADME
human recombinant cytochrome P450 3A4, sequence (P08684 whole entry): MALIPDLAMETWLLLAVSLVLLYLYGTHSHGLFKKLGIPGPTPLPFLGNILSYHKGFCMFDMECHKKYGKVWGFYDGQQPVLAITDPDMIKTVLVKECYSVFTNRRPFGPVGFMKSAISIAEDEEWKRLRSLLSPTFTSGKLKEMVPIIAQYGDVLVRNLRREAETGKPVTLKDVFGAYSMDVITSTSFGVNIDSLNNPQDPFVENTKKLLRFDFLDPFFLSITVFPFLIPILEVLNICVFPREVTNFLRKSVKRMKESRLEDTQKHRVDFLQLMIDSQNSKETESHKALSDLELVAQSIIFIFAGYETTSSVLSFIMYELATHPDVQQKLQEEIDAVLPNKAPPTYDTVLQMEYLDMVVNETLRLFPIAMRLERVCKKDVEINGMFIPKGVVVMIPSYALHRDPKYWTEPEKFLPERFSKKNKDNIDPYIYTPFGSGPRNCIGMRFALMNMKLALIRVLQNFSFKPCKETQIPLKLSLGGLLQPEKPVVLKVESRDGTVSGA

[2] = biological target: human recombinant cytochrome P450 2C9 (Homo sapiens (Human), UniProt P11712); test: CYP2C9 inhibition ([O-methyl-14C]-Naproxen), Biological Test Example 7; assay type: in vitro ADME
human recombinant cytochrome P450 2C9, sequence (P11712 whole entry): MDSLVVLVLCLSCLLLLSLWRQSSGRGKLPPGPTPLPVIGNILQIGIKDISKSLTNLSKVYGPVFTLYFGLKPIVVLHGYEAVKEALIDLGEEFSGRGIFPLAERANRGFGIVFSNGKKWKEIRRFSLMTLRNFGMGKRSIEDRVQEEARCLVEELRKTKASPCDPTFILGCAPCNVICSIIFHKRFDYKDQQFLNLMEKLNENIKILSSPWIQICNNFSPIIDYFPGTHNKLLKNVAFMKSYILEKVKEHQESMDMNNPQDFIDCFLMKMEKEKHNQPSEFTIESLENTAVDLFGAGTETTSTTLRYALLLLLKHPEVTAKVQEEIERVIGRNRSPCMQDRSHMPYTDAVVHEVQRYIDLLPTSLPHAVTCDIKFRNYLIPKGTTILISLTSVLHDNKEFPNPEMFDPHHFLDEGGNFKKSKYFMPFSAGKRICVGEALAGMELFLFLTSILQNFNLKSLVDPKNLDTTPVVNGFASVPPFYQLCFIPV

[3] = biological target: human recombinant cytochrome P450 2C19 (Homo sapiens (Human), UniProt P33261); test: CYP2C19 inhibition, Biological Test Example 8; assay type: in vitro ADME; conditions: read-out: Biological Test Example 8 CYP2C19, IC50
human recombinant cytochrome P450 2C19, sequence (P33261 whole entry): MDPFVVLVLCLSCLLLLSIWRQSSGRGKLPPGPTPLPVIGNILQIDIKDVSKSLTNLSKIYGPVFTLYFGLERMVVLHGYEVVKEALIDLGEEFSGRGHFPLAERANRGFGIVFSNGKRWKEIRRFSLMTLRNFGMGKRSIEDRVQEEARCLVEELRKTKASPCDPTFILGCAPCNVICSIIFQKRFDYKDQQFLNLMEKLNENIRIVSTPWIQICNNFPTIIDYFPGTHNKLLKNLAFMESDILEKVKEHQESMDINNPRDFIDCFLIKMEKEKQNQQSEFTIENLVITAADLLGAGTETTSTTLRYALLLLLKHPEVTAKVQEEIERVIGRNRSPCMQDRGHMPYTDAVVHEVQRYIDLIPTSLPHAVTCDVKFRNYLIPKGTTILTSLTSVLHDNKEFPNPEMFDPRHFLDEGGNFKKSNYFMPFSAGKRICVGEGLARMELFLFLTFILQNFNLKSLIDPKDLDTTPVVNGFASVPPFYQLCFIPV

11β-HSD1 = 11β-HSD1 (Homo sapiens (Human), UniProt P28845); assay type: biochemical; conditions: human liver microsomes, 100% indicates no inhibition, zero or below zero indicates complete inhibition
11β-HSD1, sequence (P28845 whole entry): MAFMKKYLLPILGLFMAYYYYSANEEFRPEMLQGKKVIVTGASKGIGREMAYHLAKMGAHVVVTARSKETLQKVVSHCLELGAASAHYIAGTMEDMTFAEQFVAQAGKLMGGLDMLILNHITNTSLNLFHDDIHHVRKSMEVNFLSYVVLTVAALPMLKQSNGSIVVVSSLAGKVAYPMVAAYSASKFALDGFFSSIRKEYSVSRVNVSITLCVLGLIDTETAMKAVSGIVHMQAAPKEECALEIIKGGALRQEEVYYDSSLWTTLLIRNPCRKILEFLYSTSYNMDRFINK

[4] = Invitrogen kit, OOMR fluorogenic substrate
[5] = human recombinant CYP2C19, [N-methyl-14C]-Diazepam

human CYP2C9, sequence (P11712 whole entry): as the sequence (P11712 whole entry) above

Structure (SMILES): C[C@@H](c1ccc(-c2cc[nH]c(=O)c2)cc1)N1CC[C@](CC(C)(C)O)(c2ccccc2)OC1=O [Example 2, (S)-6-(2-hydroxy-2-methylpropyl)-3-((S)-1-(4-(2-oxo-1,2-dihydropyridin-4-yl)phenyl)ethyl)-6-phenyl-1,3-oxazinan-2-one]
IC50 (human CYP2C9; [4]): 1.4 µM

Structure (SMILES): C[C@@H](c1ccc(-c2ccc(=O)n(C(F)F)c2)cc1)N1CC[C@](CC(C)(C)O)(c2ccccc2)OC1=O [Example 4, (S)-3-((S)-1-(4-(1-(difluoromethyl)-6-oxo-1,6-dihydropyridin-3-yl)phenyl)ethyl)-6-(2-hydroxy-2-methylpropyl)-6-phenyl-1,3-oxazinan-2-one]
IC50 (human CYP2C9; [4]): 5.1 µM

Structure (SMILES): C[C@@H](c1ccc(-c2ccc(=O)n(C)c2)cc1)N1CC[C@](CC(C)(C)C(N)=O)(c2ccccc2)OC1=O [Example 6, 2,2-dimethyl-3-((R)-3-((S)-1-(4-(1-methyl-6-oxo-1,6-dihydropyridin-3-yl)phenyl)ethyl)-2-oxo-6-phenyl-1,3-oxazinan-6-yl)propanamide]
IC50 ([1]; human recombinant CYP3A4): 4.4 µM
IC50 (human CYP2C9; [4]): 5 µM
IC50 ([2]; human recombinant CYP2C9): 2.3 µM
IC50 [3, 5]: 8.6 µM

Structure (SMILES): C[C@@H](c1ccc(-c2ccc(=O)n(C)c2)cc1)N1CC[C@](CC(C)(C)N)(c2ccccc2)OC1=O [Example 7, (S)-6-(2-amino-2-methylpropyl)-3-((S)-1-(4-(1-methyl-6-oxo-1,6-dihydropyridin-3-yl)phenyl)ethyl)-6-phenyl-1,3-oxazinan-2-one]
IC50 (human CYP2C9; [4]): 4 µM

Structure (SMILES): C[C@@H](c1ccc(-c2ccn(C)c(=O)c2)cc1)N1CC[C@](CC(C)(C)O)(c2ccccc2F)OC1=O [Example 26, (S)-6-(2-fluorophenyl)-6-(2-hydroxy-2-methylpropyl)-3-((S)-1-(4-(1-methyl-2-oxo-1,2-dihydropyridin-4-yl)phenyl)ethyl)-1,3-oxazinan-2-one]
IC50 [1]: > 50 µM
IC50 [2]: > 50 µM
IC50 [3]: > 50 µM

Structure (SMILES): CC[C@@H](c1ccc(-c2ccc(=O)n(C)c2)cc1)N1CC[C@](CCO)(c2ccccc2)OC1=O [Example 40, (S)-6-(2-hydroxyethyl)-3-((S)-1-(4-(1-methyl-6-oxo-1,6-dihydropyridin-3-yl)phenyl)propyl)-6-phenyl-1,3-oxazinan-2-one]
IC50 [1]: > 50 µM
IC50 [2]: > 50 µM

Structure (SMILES): CC(C)n1cc(-c2ccc([C@H](C)N3CC[C@](CC(C)(C)O)(c4ccccc4)OC3=O)cc2)ccc1=O [Example 59, (S)-6-(2-hydroxy-2-methylpropyl)-3-((S)-1-(4-(1-isopropyl-6-oxo-1,6-dihydropyridin-3-yl)phenyl)ethyl)-6-phenyl-1,3-oxazinan-2-one]
IC50 [1]: > 50 µM

Structure (SMILES): Cc1cc(-c2ccc([C@H](C)N3CC[C@](CC(C)(C)O)(c4ccccc4)OC3=O)cc2)cn(C)c1=O [Example 61, (S)-3-((S)-1-(4-(1,5-dimethyl-6-oxo-1,6-dihydropyridin-3-yl)phenyl)ethyl)-6-(2-hydroxy-2-methylpropyl)-6-phenyl-1,3-oxazinan-2-one]
IC50 [1]: > 50 µM

Structure (SMILES): Cc1cc(-c2ccc([C@H](C)N3CC[C@](CC(C)(C)O)(c4ccccc4)OC3=O)cc2)cc(=O)n1C [Example 64, (S)-3-((S)-1-(4-(1,6-dimethyl-2-oxo-1,2-dihydropyridin-4-yl)phenyl)ethyl)-6-(2-hydroxy-2-methylpropyl)-6-phenyl-1,3-oxazinan-2-one]
IC50 [1]: > 50 µM

Structure (SMILES): C[C@@H](c1ccc(-c2ccc(=O)n(C)c2)cc1)N1CC[C@](CC(C)(C)C#N)(c2ccc(F)cc2)OC1=O [Example 69, 3-((R)-6-(4-fluorophenyl)-3-((S)-1-(4-(1-methyl-6-oxo-1,6-dihydropyridin-3-yl)phenyl)ethyl)-2-oxo-1,3-oxazinan-6-yl)-2,2-dimethylpropanenitrile]
IC50 [3]: > 50 µM

Structure (SMILES): C[C@@H](c1ccc(-c2ccc(=O)n(CC3CC3)c2)cc1)N1CC[C@](CC(C)(C)O)(c2ccccc2)OC1=O [Example 76, 3-{(S)-1-[4-(1-Cyclopropylmethyl-6-oxo-1,6-dihydro-pyridin-3-yl)-phenyl]-ethyl}-(S)-6-(2-hydroxy-2-methyl-propyl)-6-phenyl-[1,3]oxazinan-2-one]
Average % control inhibition at 100 nM (11β-HSD1): 17 % control

Structure (SMILES): COC[C@]1(c2ccccc2)CCN([C@@H](C)c2ccc(-c3ccn(C)c(=O)c3)cc2)C(=O)O1 [Example 78, (R)-6-Methoxymethyl-3-{(S)-1-[4-(1-methyl-2-oxo-1,2-dihydro-pyridin-4-yl)-phenyl]-ethyl}-6-phenyl-[1,3]oxazinan-2-one]
Average % control inhibition at 100 nM (11β-HSD1): 58 % control

The next lines start with the values.

IC50 (human CYP2C9; [4]): 3 µM
Structure (SMILES): CC(=O)NC(C)(C)C[C@]1(c2ccccc2)CCN([C@@H](C)c2ccc(-c3ccc(=O)n(C)c3)cc2)C(=O)O1 [Example 8, N-(2-methyl-1-((S)-3-((S)-1-(4-(1-methyl-6-oxo-1,6-dihydropyridin-3-yl)phenyl)ethyl)-2-oxo-6-phenyl-1,3-oxazinan-6-yl)propan-2-yl)acetamide]

IC50 ([1]; human recombinant CYP3A4): 4.4 µM
IC50 (human CYP2C9; [4]): 7.3 µM
IC50 ([2]; human recombinant CYP2C9): 5.6 µM
IC50 [3, 5]: < 0.4 µM
Structure (SMILES): C[C@@H](c1ccc(-c2ccn(C)c(=O)c2)cc1)N1CC[C@](CC(C)(C)NS(C)(=O)=O)(c2ccccc2)OC1=O [Example 13, N-(2-methyl-1-((S)-3-((S)-1-(4-(1-methyl-2-oxo-1,2-dihydropyridin-4-yl)phenyl)ethyl)-2-oxo-6-phenyl-1,3-oxazinan-6-yl)propan-2-yl)methanesulfonamide]

IC50 ([1]; human recombinant CYP3A4): 19.7 µM
IC50 (human CYP2C9; [4]): 24.6 µM
IC50 ([2]; human recombinant CYP2C9): 25.9 µM
IC50 [3, 5]: 6.4 µM
Structure (SMILES): C[C@@H](c1ccc(-c2cc[nH]c(=O)c2)cc1)N1CC[C@](CC(C)(C)C#N)(c2ccccc2)OC1=O [Example 14, 2,2-dimethyl-3-((R)-2-oxo-3-((S)-1-(4-(2-oxo-1,2-dihydropyridin-4-yl)phenyl)ethyl)-6-phenyl-1,3-oxazinan-6-yl)propanenitrile]

IC50 ([1]; human recombinant CYP3A4): 3.1 µM
IC50 (human CYP2C9; [4]): 9.5 µM
IC50 ([2]; human recombinant CYP2C9): 7.7 µM
IC50 [3, 5]: < 0.4 µM
Structure (SMILES): C[C@@H](c1ccc(-c2ccc(=O)[nH]c2)cc1)N1CC[C@](CC(C)(C)C#N)(c2ccc(F)cc2)OC1=O [Example 15, 3-((R)-6-(4-fluorophenyl)-2-oxo-3-((S)-1-(4-(6-oxo-1,6-dihydropyridin-3-yl)phenyl)ethyl)-1,3-oxazinan-6-yl)-2,2-dimethylpropanenitrile]

IC50 [1]: > 50 µM
Structure (SMILES): C[C@@H](c1ccc(-c2ccc(=O)n(C)c2)cc1)N1CC[C@](CCCO)(c2ccccc2)OC1=O [Example 30, (R)-6-(3-hydroxypropyl)-3-((S)-1-(4-(1-methyl-6-oxo-1,6-dihydropyridin-3-yl)phenyl)ethyl)-6-phenyl-1,3-oxazinan-2-one]

IC50 [1]: > 50 µM
IC50 [2]: > 50 µM
IC50 [3]: > 50 µM
Structure (SMILES): C[C@@H](c1ccc(-c2ccc(=O)n(C)c2)cc1)N1CC[C@](CC(C)(C)O)(c2ccc(F)cc2)OC1=O [Example 32, (S)-6-(4-fluorophenyl)-6-(2-hydroxy-2-methylpropyl)-3-((S)-1-(4-(1-methyl-6-oxo-1,6-dihydropyridin-3-yl)phenyl)ethyl)-1,3-oxazinan-2-one]

IC50 [1]: > 50 µM
IC50 (human CYP2C9): 30 µM
IC50 [2]: > 50 µM
IC50 [3]: > 50 µM
Structure (SMILES): CCn1cc(-c2ccc([C@H](C)N3CC[C@](CC(C)(C)O)(c4ccccc4)OC3=O)cc2)ccc1=O [Example 53, (S)-3-((S)-1-(4-(1-ethyl-6-oxo-1,6-dihydropyridin-3-yl)phenyl)ethyl)-6-(2-hydroxy-2-methylpropyl)-6-phenyl-1,3-oxazinan-2-one]

IC50 [2]: > 50 µM
Structure (SMILES): CCn1cc(-c2ccc([C@H](C)N3CC[C@](CC(C)(C)O)(c4ccc(F)cc4)OC3=O)cc2)ccc1=O [Example 62, (S)-3-((S)-1-(4-(1-ethyl-6-oxo-1,6-dihydropyridin-3-yl)phenyl)ethyl)-6-(4-fluorophenyl)-6-(2-hydroxy-2-methylpropyl)-1,3-oxazinan-2-one]

IC50 [2]: > 50 µM
Structure (SMILES): CCn1cc(-c2ccc([C@H](C)N3CC[C@](CC(C)(C)O)(c4ccccc4)OC3=O)cc2)cc(C)c1=O [Example 70, (S)-3-((S)-1-(4-(1-ethyl-5-methyl-6-oxo-1,6-dihydropyridin-3-yl)phenyl)ethyl)-6-(2-hydroxy-2-methylpropyl)-6-phenyl-1,3-oxazinan-2-one]

IC50 [1]: > 50 µM
IC50 [3]: > 50 µM
Structure (SMILES): C[C@@H](c1ccc(-c2ccn(C3CC3)c(=O)c2)cc1)N1CC[C@](CC(C)(C)O)(c2ccccc2F)OC1=O [Example 88, (S)-3-((S)-1-(4-(1-cyclopropyl-2-oxo-1,2-dihydropyridin-4-yl)phenyl)ethyl)-6-(2-fluorophenyl)-6-(2-hydroxy-2-methylpropyl)-1,3-oxazinan-2-one]
